Patent publication US12533348B2, “Ferroportin-inhibitors for the use in the treatment of transfusion-dependent beta-thalassemia (TDT)” (Vifor (International) AG, priority 2019, dated 2026)
“And” between values parts separate entries of the source, which are not always exact repeats. Identical values can stand only once.

Experiments:
[1] = Combination study DFX/Fpn127: clinical observations, mortality and body weight; format: in vivo, mouse; details: for BW: th3/+ mice, mean
Experimental: (§1) One day after switching to lid a blood sample was taken by tail vein incision to determine the baseline Hb levels. Hb was measured using a HaemoCue® device. Hb was also measured on days 8, 15, and 22 in the morning before dosing. The animals were dosed p.o. D with 30 mg/kg DFX in 30% Kolliphor, 120 mg/kg Fpn127 in 0.5% C, or both for a total of 17 doses during the 23 days of study. 30% Kolliphor and 0.5% C were dosed as vehicles. The dose of DFX was administered at the beginning of the dark cycle (active phase) at 9:00 followed by 3 h of access to lid. Then, mice were dosed with Fpn127 (or 0.5% C) and were given access to sd for a 6 h period before switched back to lid. On the dosing was paused and mi had access to lid ad libitum.
Animals and their cages were checked daily by the experimenter during the study on working days. During the experimental phase, animals were weighted minimum once per week and scored according to their clinical symptoms: BW, general behavior and activity, appearance of hair coat, eyes, and nose. Clinical observations were recorded when present on separate score sheets.
BW was recorded once before the start of the experimental phase on day −1. During the experimental phase, individual BW were recorded 1 to 2 times per week to calculate the dosing volume and to monitor weight loss.

[2] = system: Hbb^th3/+ mouse model of β-thalassemia intermedia; test: Combination study: hemoglobin (HemoCue photometer); format: in vivo; details: for Hb concentration: th3/+ mice, Fpn127 120 mg/kg QD p.o., mean
Experimental: as §1
Hb was measured on days 1, 8, 15 and 22. Individual Hb values were determined at the starting day of the experiment (day 1) and weekly thereafter during the experimental phase in the morning before the first daily dose. A blood sample was taken by tail vein incision and Hb was measured using a HemoCue® DM201 Hb photometer.

[3] = system: Hbb^th3/+ mouse model of β-thalassemia intermedia; test: Combination study: erythroid differentiation stages in spleen by flow cytometry (Ter119/CD44/CD71); format: in vivo
Description: Distinct stages of erythroid cell differentiation in spleens of female mice were identified by flow cytometry (CANTOII cytometer, BD Biosciences) using PE-conjugated rat anti-mouse CD71 (transferrin receptor-1, eBioscience, Cat. 12-0711), APC-conjugated rat anti-mouse Ter119 (erythroid lineage marker, eBioscience, Cat. 17-5921) and APC-Cy7-conjugated rat anti-mouse CD44 (adhesion molecule that progressively decreases on the surface of developing erythroid cells, BioLegend. Cat. 103028) antibodies. Data were analyzed using FlowJo® software (FlowJo. LLC, version 10.1) Serum Parameters

[4] = system: Hbb^th3/+ mouse model of β-thalassemia intermedia; test: Combination study: serum EPO (DuoSet ELISA); format: in vivo
Experimental: On day 23 (study end) 1 hour after dosing blood was collected by retro-orbital bleeding from pre-terminally anesthetized mice into BD Microtainer Tubes (Cat. 365967 and 365975) for determination of serum iron, transferrin, erythropoietin and compound exposure. Anesthetized animals were subsequently euthanized by cervical dislocation.
[formula] Serum EPO was measured using a mouse-specific DuoSet ELISA according to the manufacturer's instructions (R&D Systems, Cat. DY959). Plasma concentrations of Fpn127 and DFX were measured at GVK Biosciences, Hyderabad, IN. Flow Cytometric Analysis of Intracellular ROS, Mitochondria, and PS Exposure

[5] = system: Hbb^th3/+ mouse model of β-thalassemia intermedia; test: Combination study: flow cytometric analysis of intracellular ROS, mitochondria and PS exposure in mature RBC; format: in vivo
Experimental: In peripheral blood taken on day 22 by tail vein incision, ROS were detected with the indicator chloromethyl-2′,7′-dichlorodihydrofluorescein diacetate (CM-H2DCFDA, Invitrogen), the presence of mitochondria was detected with MitoTracker Deep Red FM (Invitrogen), and PS exposure was detected using the Annexin V Apoptosis Detection Kit (Invitrogen) in mature RBC labelled with Ter119 and CD71 antibodies.
For all analysis, cells were analyzed on a CANTOII cytometer (BD Biosciences) and data were analyzed using FlowJo® software (FlowJo, LLC, version 10.2).

[6] = system: Hbb^th3/+ mouse model of β-thalassemia intermedia; test: Combination study: organ weights and tissue iron (ICP-OES) in liver, spleen, kidney; details: for relative spleen weight: percent of body weight; for relative spleen weight / kidney Fe conc. / liver Fe conc. / spleen Fe conc.: th3/+ mice, DFX 30 mg/kg QD, Fpn127 120 mg/kg QD p.o., end of study (day 23), mean
Experimental: The aim of this study was to test whether the concurrent use of the iron chelator DFX administered once daily (QD) alone at 30 mg/kg or in combination with Fpn127 administered QD at 120 mg/kg for 3 weeks is causing any therapeutic interactions in a mouse model of β-thalassemia intermedia (Hbb^th3/+; B6; 129P—b1tm1Unc-b2tm1Unc/J, Jackson Laboratories, Stock Number: 002683).
Animals were euthanized 1 h after the last dose of DFX on study day 23 (dosing day 17).
On the final study day (day 23), spleen, liver, and kidneys were collected and snap frozen in liquid nitrogen for further analysis, as outlined below. Wet weight of spleen, liver, and kidneys were recorded.
Content of total Fe was determined in pieces of spleens, livers, and kidneys by ICP-OES in the Analytical Development group of Vifor (International) Ltd., St. Gallen.
Individual wet weights of organs were recorded. Individual values of total Fe were measured in livers, spleens, and kidneys. Individual values of total Fe content and concentration were calculated. Mean±SD of total Fe concentration and content in livers, spleens, and kidneys was calculated for each group.

[7] = percent of parent Ter119+ spleen cells, female th3/+ mice, DFX 30 mg/kg QD, Fpn127 120 mg/kg QD p.o., end of study, mean
[8] = th3/+ mice, all animals, mature RBCs in whole blood at end of study (pre-terminally d22)

In the case of O=C(NCc1ncccc1F)c1coc(CCNCCc2nc3ccccc3[nH]2)n1 [Fpn127], the “tolerability / clinical symptoms” value ([1]; Hbb^th3/+ mice, DFX 30 mg/kg QD, Fpn127 120 mg/kg QD p.o., 17 doses in 23 days) is reported as “generally well tolerated”, the “effect on BW vs vehicle-treated Hbb^th3/+ mice or WT mice” value ([1]; males and females, once daily for the duration of the study (d22)) is reported as “no effect on BW” and the BW ([1]; DFX 30 mg/kg QD, Fpn127 120 mg/kg QD p.o., day 1, all animals) is reported as 22.2 g. The BW ([1]; DFX 30 mg/kg QD, Fpn127 120 mg/kg QD p.o., day 1, females) was 19.4 ± 1.0 g and 19.4 g, the BW ([1]; DFX 30 mg/kg QD, Fpn127 120 mg/kg QD p.o., day 1, males) was 25.1 ± 1.0 g and 25.1 g and the BW ([1]; DFX 30 mg/kg QD, Fpn127 120 mg/kg QD p.o., day 3, all animals) was 23.6 g. For the same molecule, the BW ([1]; DFX 30 mg/kg QD, Fpn127 120 mg/kg QD p.o., day 3, females) was 20.3 g, the BW ([1]; DFX 30 mg/kg QD, Fpn127 120 mg/kg QD p.o., day 3, males) was 26.9 g and the BW ([1]; DFX 30 mg/kg QD, Fpn127 120 mg/kg QD p.o., day 7, all animals) was 23.1 g. It also gave a BW ([1]; DFX 30 mg/kg QD, Fpn127 120 mg/kg QD p.o., day 7, females) of 19.8 g, a BW ([1]; DFX 30 mg/kg QD, Fpn127 120 mg/kg QD p.o., day 7, males) of 26.5 g and a BW ([1]; DFX 30 mg/kg QD, Fpn127 120 mg/kg QD p.o., day 10, all animals) of 23.4 g. It also gave a BW ([1]; DFX 30 mg/kg QD, Fpn127 120 mg/kg QD p.o., day 10, females) of 20.3 g, a BW ([1]; DFX 30 mg/kg QD, Fpn127 120 mg/kg QD p.o., day 10, males) of 26.5 g and a BW ([1]; DFX 30 mg/kg QD, Fpn127 120 mg/kg QD p.o., day 14, all animals) of 23.3 g. The BW ([1]; DFX 30 mg/kg QD, Fpn127 120 mg/kg QD p.o., day 14, females) was 20.2 g, the BW ([1]; DFX 30 mg/kg QD, Fpn127 120 mg/kg QD p.o., day 14, males) was 26.3 g and the BW ([1]; DFX 30 mg/kg QD, Fpn127 120 mg/kg QD p.o., day 17, all animals) was 23.2 g. The BW ([1]; DFX 30 mg/kg QD, Fpn127 120 mg/kg QD p.o., day 17, females) was 19.7 g, the BW ([1]; DFX 30 mg/kg QD, Fpn127 120 mg/kg QD p.o., day 17, males) was 26.6 g and the BW ([1]; DFX 30 mg/kg QD, Fpn127 120 mg/kg QD p.o., day 22, all animals) was 23.3 g. For the same molecule, the BW ([1]; DFX 30 mg/kg QD, Fpn127 120 mg/kg QD p.o., day 22, females) was 19.8 g, the BW ([1]; DFX 30 mg/kg QD, Fpn127 120 mg/kg QD p.o., day 22, males) was 26.7 g and the “change of Hb levels compared to vehicle-treated mice” value ([2]; Hbb^th3/+ mice, by the study end, Fpn127 120 mg/kg QD, DFX 30 mg/kg QD) was 13 g/L. The “Hb levels during the study duration” value ([2]; Hbbth3/+ animals (FIG. 6)) was “increased with time”, the Hb concentration ([2]; DFX 30 mg/kg QD, day 1 (before dosing), all animals) was 85 g/L and the Hb concentration ([2]; DFX 30 mg/kg QD, day 1 (before dosing), females) was 85 ± 4 g/L and 85 g/L. The Hb concentration ([2]; DFX 30 mg/kg QD, day 1 (before dosing), males) was 85 ± 6 g/L and 85 g/L, the Hb concentration ([2]; DFX 30 mg/kg QD, day 8, all animals) was 92 g/L and the Hb concentration ([2]; DFX 30 mg/kg QD, day 8, females) was 93 g/L. The Hb concentration ([2]; DFX 30 mg/kg QD, day 8, males) was 90 g/L, the Hb concentration ([2]; DFX 30 mg/kg QD, day 15, all animals) was 96 g/L and the Hb concentration ([2]; DFX 30 mg/kg QD, day 15, females) was 99 g/L. The Hb concentration ([2]; DFX 30 mg/kg QD, day 15, males) was 93 g/L, the Hb concentration ([2]; DFX 30 mg/kg QD, day 22, all animals) was 98 g/L and the Hb concentration ([2]; DFX 30 mg/kg QD, day 22, females) was 101 g/L. For the same molecule, the Hb concentration ([2]; DFX 30 mg/kg QD, day 22, males) was 95 g/L, the “RBC percentage in spleen” value ([3]; Hbbth3/+ mice (FIG. 9)) was “increased” and the “percentage of immature erythroid cells in spleen” value ([3]; Hbbth3/+ mice (FIG. 9)) was “markedly reduced”. For the same molecule, the “basophilic erythroblasts, frequency of parent” value [3, 7] was 4.94%, the “mature erythrocytes, frequency of parent” value [3, 7] was 53.52% and the “orthochromatic erythroblasts, frequency of parent” value [3, 7] was 14.65%. For the same molecule, the “polychromatic erythroblasts, frequency of parent” value [3, 7] was 9.44%, the “pro-erythroblasts, frequency of parent” value [3, 7] was 1.74% and the “effect on EPO levels” value ([4]; Hbbth3/+ animals, day 23 (FIG. 10)) was “reduced EPO levels”. The EPO ([4]; serum, th3/+ mice, day 23, DFX 30 mg/kg QD, Fpn127 120 mg/kg QD p.o., all animals, mean) was 3938 ± 1167 pg/mL and 3938 pg/mL, the “proportion of PS-positive RBC (annexin V staining)” value ([5]; Hbbth3/+ mice (FIG. 12)) was “significantly decreased” and the “RBC function/quality (oxidative stress, apoptosis and maturation)” value ([5]; Hbbth3/+ mice, summary) was “improved RBC quality”. The “proportion of ROS-producing RBC” value ([5]; compared to Hbbth3/+ mice treated with vehicle or DFX alone, CM-H2DCFDA (FIG. 12)) was “significantly decreased”, the RBC containing mitochondria ([5]; compared to vehicle-treated and DFX-treated Hbbth3/+ mice (FIG. 12)) was “less RBC containing mitochondria” and the “% Annex in V-positive RBCs (mean)” value [5, 8] was 0.29%. The “% Mito Tracker-positive RBCs (mean)” value [5, 8] was 0.19%, the “% ROS-positive RBCs (mean)” value [5, 8] was 32.82% and the “effect on total liver iron concentration vs vehicle-treated th3/+ mice” value ([6]; end of study (FIG. 3)) was “no effect on liver iron concentration”. For the same molecule, the “effect on total spleen iron concentration vs vehicle-treated th3/+ mice” value ([6]; end of study (FIG. 4)) was “significantly increased”, the “effect on total kidney iron concentration vs vehicle-treated Hbbth3/+ mice” value ([6]; end of study (FIG. 5)) was “significantly reduced” and the “effect on relative spleen weight in th3/+ animals” value ([6]; end of study d23 (FIG. 4)) was “significantly reduced”. The relative spleen weight ([6]; all animals) was 0.99±0.18% and 0.99%, the relative spleen weight ([6]; females) was 1.12% and the relative spleen weight ([6]; males) was 0.86%. The “kidney Fe conc.” value ([6]; all animals) was 126.7 ± 23.6 µg/g and 126.7 µg/g, the “liver Fe conc.” value ([6]; all animals) was 332.2 ± 75.2 µg/g and 332.2 µg/g and the “spleen Fe conc.” value ([6]; all animals) was 2738.0 ± 300.8 µg/g and 2738.0 µg/g. The “kidney Fe conc.” value ([6]; females) was 138.9 µg/g, the “liver Fe conc.” value ([6]; females) was 371.8 µg/g and the “spleen Fe conc.” value ([6]; females) was 2713.0 µg/g. The “kidney Fe conc.” value ([6]; males) was 114.5 µg/g, the “liver Fe conc.” value ([6]; males) was 292.5 µg/g and the “spleen Fe conc.” value ([6]; males) was 2760.0 µg/g.
